We go through 6 compounds from patent US7998972B2, “1H-imidazo[4,5-c]quinoline derivatives in the treatment of protein kinase dependent diseases” (Novartis AG, priority 2002, dated 2011).

Molecules are shown by their SMILES.

What all share (type): biochemical
One assay deals with T1, Kdr (Homo sapiens, UniProt P35968).
T1 construct: The kinase domain of KDR is expressed as GST-fusion protein using the baculovirus system; made in house
Briefly: Inhibition of KDR protein tyrosine kinase in vitro. To be noted: GST-fused KDR kinase domain, polyGluTyr(4:1), 8 μM ATP; read-out: IC50 range class, inhibition of Kdr in vitro. The procedure: Inhibition of the enzyme activity of KDR protein tyrosine kinase can be determined as follows: The kinase domain of KDR is expressed as GST-fusion protein using the baculovirus system. The in vitro kinase assay is performed in 96-well plates using the recombinant GST-fused kinase domains expressed in baculovirus and purified over glutathione-Sepharose. ^33P-ATP (Amersham) is used as the phosphate donor, and the polyGluTyr(4:1) peptide (Sigma) is used as acceptor. The buffer is composed as follows: 29 mM Tris-HCl, pH 7.5; 10 mM MgCl2, 1 μM MnCl2, 8 μM ATP, 0.2 μCi ^33P-ATP, 8 μg/ml polyGluTyr. The reaction os carried out in a volume of 30 μl for 10 min at room temperature in the presence of either 1% DMSO or the test compound of formula I at the required concentration in 1% DMSO […]. The reaction is stopped by the addition of ethylenediaminetetraacetic acid to a final concentration of 60 mM. The assay mixture is then transferred onto a Immobilon-PVF membrane (Millipore), which is subsequently washed four times with 0.05% H3PO4 and once with ethanol. After drying, […] of Microscint Cocktail (Packard) is added and scintillation counting is performed (Hewlett-Packard Top Count). IC50 values are calculated by linear regression analysis of the percentage inhibition of each test compound in duplicate, at three concentrations (usually 0.01, 0.1 and 1 μM or 0.1, 1 and 10 μM).

In a further assay the target is T2, Abl (Homo sapiens, UniProt P00519).
T2 construct: The His-tagged kinase domain of c-Abl is cloned and expressed in the baculovirus/Sf9 system; His; made in house; host or cells: baculovirus / Sf9 cells
T2 sequence (P00519 242-493 limits assumed): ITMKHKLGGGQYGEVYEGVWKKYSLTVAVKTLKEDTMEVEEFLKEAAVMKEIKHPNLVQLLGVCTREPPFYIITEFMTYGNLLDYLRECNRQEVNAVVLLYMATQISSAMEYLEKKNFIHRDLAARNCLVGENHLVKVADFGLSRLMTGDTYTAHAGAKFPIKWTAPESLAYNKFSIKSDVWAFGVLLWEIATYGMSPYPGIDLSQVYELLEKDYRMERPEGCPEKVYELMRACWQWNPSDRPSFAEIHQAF
Briefly: Inhibition of c-Abl protein-tyrosine kinase (filter binding assay). Particulars: His-tagged c-Abl kinase domain, Poly-AEKY, 5 μM ATP; read-out: IC50 range class, inhibition of Abl in vitro. The procedure:
An in vitro enzyme assay is performed in 96-well plates as a filter binding assay as described by Geissler et al. in Cancer Res. 1992; 52:4492-4498, with the following modifications. The His-tagged kinase domain of c-Abl is cloned and expressed in the baculovirus/Sf9 system as described by Bhat et al. in J. Biol. Chem. 1997; 272:16170-16175. A protein of 37 kD (c-Abl kinase) is purified by a two-step procedure over a Cobalt metal chelate column followed by an anion exchange column with a yield of 1-2 mg/L of Sf9 cells (Bhat et al., reference cited). The purity of the c-Abl kinase is >90% as judged by SDS-PAGE after Coomassie blue staining. The assay contains (total volume of 30 μL): c-Abl kinase (50 ng), 20 mM Tris.HCl, pH 7.5, 10 mM MgCl2, 10 μM Na3VO4, 1 mM DTT and 0.06 μCi/assay [γ^33 P]-ATP (5 μM ATP) using 30 μg/mL poly-Ala,Glu,Lys,Tyr-6:2:5:1 (Poly-AEKY, Sigma P1152) in the presence of 1% DMSO. Reactions are terminated by adding 10 μL of 250 mM EDTA and 30 μL of the reaction mixture is transferred on to Immobilon-PVDF membrane (Millipore, Bedford, Mass., USA) previously soaked for 5 min with methanol, rinsed with water, then soaked for 5 min with 0.5% H3PO4 and mounted on vacuum manifold with disconnected vacuum source. After spotting all samples, vacuum is connected and each well rinsed with 200 μL 0.5% H3PO4. Membranes are removed and washed on a shaker with 0.5% H3PO4 (4 times) and once with ethanol. Membranes are counted after drying at ambient temperature, mounting in Packard TopCount 96-well frame, and addition of 10 μL/well of Microscint™ (Packard).

The target in another assay is PKB/Akt (Homo sapiens, UniProt P31749). Briefly: Inhibition of PKB/Akt in vitro. Particulars: PDK1-activated GST-PKB, LRRPRTRSFS peptide, 20 μM ATP; read-out: IC50 range class, inhibition of PKB/Akt in vitro. The procedure: The activity as inhibitor of PKB can be determined as follows:
To fully activate PKB, the enzyme is exposed to catalytic amounts of PDK1. GST-PKB (100 ng, Specific Activity: 0.2 nmoles/mg/mins) is incubated for 30 min at room temperature (rt) with purified recombinant GST-PDK1 (1 ng, SA: 2 nmoles/min/mg). The activation is performed as follows: 0.1 μg of GST-PDK1 (0.05 μl) and 10 μg of GST-PKB (0.45 μl) are mixed in a total volume of 0.75 μl containing 15 μM ATP, 3 mM MgCl2, 20 mM Hepes (pH 7.6) for 30 mins at rt. The reaction is subsequently stopped by adding 0.25 μl containing 30% glycerol (w/w) and 0.06 μl of 500 mM EDTA. 100-500 ng (0.01-0.05 μl) activated GST-PKB is incubated in a final volume of 30 μl with 10 μM of the LRRPRTRSFS peptide, 10 mM Mg-acetate, 50 mM MOPS (PH 7.5), 1 mM DTT and 300 μg/ml BSA, 20 μM ATP (0.1 μCi gamma-^33P-ATP). The reaction is carried out for 30 min at rt in the presence of either 1% DMSO or the text compound of the formula I at the required concentration in 1% DMSO. The reaction is terminated by the addition of 20 μl 125 mM EDTA. 30 ill of each sample is spotted onto P81 Whatman and the paper squares processed as described in Ferrari, S. and Thomas, G. (1991) Meth. Enzymol. 200, 159-169. IC50 values are calculated by linear regression analysis of the percentage inhibition of each compound in duplicate.

T1 sequence (P35968 834-1162 limits assumed): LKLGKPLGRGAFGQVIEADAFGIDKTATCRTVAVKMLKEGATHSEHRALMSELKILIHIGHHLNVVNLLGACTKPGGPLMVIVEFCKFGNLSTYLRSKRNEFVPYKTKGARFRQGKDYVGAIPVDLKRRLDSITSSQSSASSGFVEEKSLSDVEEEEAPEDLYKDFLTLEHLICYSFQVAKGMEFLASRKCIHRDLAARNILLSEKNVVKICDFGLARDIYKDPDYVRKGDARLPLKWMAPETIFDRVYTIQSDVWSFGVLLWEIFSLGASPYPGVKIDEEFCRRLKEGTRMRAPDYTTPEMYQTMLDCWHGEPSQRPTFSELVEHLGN
Chain of PKB/Akt (P31749 whole entry): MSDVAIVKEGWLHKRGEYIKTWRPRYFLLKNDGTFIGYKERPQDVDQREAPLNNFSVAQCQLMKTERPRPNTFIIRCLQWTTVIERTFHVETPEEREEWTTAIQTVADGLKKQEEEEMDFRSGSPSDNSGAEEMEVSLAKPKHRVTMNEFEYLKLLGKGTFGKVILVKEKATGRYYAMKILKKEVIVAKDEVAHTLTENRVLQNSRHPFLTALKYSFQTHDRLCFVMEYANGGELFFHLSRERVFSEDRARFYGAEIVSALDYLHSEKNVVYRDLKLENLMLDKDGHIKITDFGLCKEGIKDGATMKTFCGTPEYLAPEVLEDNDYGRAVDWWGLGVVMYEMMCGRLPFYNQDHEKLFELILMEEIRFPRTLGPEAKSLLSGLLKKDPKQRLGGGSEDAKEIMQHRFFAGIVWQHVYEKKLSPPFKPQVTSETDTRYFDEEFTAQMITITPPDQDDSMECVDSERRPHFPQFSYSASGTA

As to `OCc1cccc(-n2cnc3cnc4ccc(-c5ccccc5)cc4c32)c1` [Example 62, [3-(8-Phenyl-imidazo[4,5-c]quinolin-1-yl)-phenyl]-methanol], the IC50 on Kdr and on Abl was no more than 500 nM throughout.

On to `COc1ccccc1-c1ccc2ncc3ncn(-c4ccccc4Cl)c3c2c1` [Example 142, 1-(2-Chloro-phenyl)-8-(2-methoxy-phenyl)-1H-imidazo[4,5-c]quinoline], for which, on Abl, the IC50 is no more than 500 nM.

As for `Nc1cccc(-n2cnc3cnc4ccc(-c5ccccc5)cc4c32)c1` [Example 58, 3-(8-Phenyl-imidazo[4,5-c]quinolin-1-yl)-phenylamine], the IC50 at Kdr and at Abl was no more than 500 nM throughout.

For the compound `COc1ccc(-c2ccc3ncc4ncn(-c5ccccc5Cl)c4c3c2)cc1` [Example 137, 1-(2-Chloro-phenyl)-8-(4-methoxy-phenyl)-1H-imidazo[4,5-c]quinoline], the IC50 on PKB/Akt is 1000 to 2000 nM.

For the compound `Fc1ccccc1-n1cnc2cnc3ccc(-c4ccccc4)cc3c21` [Example 54, 1-(2-Fluoro-phenyl)-8-phenyl-1H-imidazo[4,5-c]quinoline], on PKB/Akt, the IC50 lay in the range of 1000 to 2000 nM.

`COc1cccc(-c2ccc3ncc4ncn(-c5ccccc5Cl)c4c3c2)c1` [Example 140, 1-(2-Chloro-phenyl)-8-(3-methoxy-phenyl)-1H-imidazo[4,5-c]quinoline]: the IC50 at Kdr and at Abl was no more than 500 nM each time.
